Patent US20240300976A1, “COMPOUNDS AS MODULATORS OF ENDOPLASMIC RETICULUM AMINOPEPTIDASE 1 (ERAP1)” (GREY WOLF THERAPEUTICS LIMITED, priority 2020, published 2024)

What follows are compounds tested against T1, ERAP1 (Homo sapiens, UniProt Q9NZ08) (assay: ERAP1 mediated hydrolysis of an amide substrate (10-mer inhibition assay), biochemical system). Details: 10-mer substrate, incubated at 23° C. for 1 h, excitation 279 nm and emission 355 nm; read-out: IC50 vs Decapeptide WRVYEKC(Dnp)ALK-acid (where Dnp is Dinitrophenyl maleimide) (10-mer).
T1 construct: Purified ERAP1(37-941)-10His (ERAP1); 10His (C)
Excerpt: This peptide has minimal fluorescence as the N-terminal tryptophan residue's fluorescence is quenched by the dinitrophenol (DNP) residue within the peptide. However, as ERAP1 hydrolyses the N-terminal amide bond and tryptophan is released this internal quenching is lost and the reaction is monitored by the increase in tryptophan fluorescence over the course of the assay. For the purposes of this application this assay is referred to as the “1 Omer inhibition assay” and compound potencies are calculated and expressed as 1050 as would be familiar to a person skilled in the art.
Biological Assay 1: ERAP1 Mediated Hydrolysis of an Amide Substrate Measured in a Biochemical System
• 1× Assay buffer (AB): 25 mM Bis-tris propane, 0.05% w/v Hydroxypropylmethylcellulose pH 7.75 made with Optima grade water • Decapeptide WRVYEKC(Dnp)ALK-acid (where Dnp is Dinitrophenyl maleimide) (10-mer) • L-Leucine 7-amido-4-methylcoumarin (L-AMC) • Purified ERAP1(37-941)-10His (ERAP1)
12.5 μL ERAP1 enzyme in 1×AB was combined with 250 nL test compound in DMSO. 12.5 μL of either 240 μM L-AMC in 1×AB or 100 μM 10-mer in 1×AB was added to the reaction and incubated at 23° C. for 1 h. For detection, plates were read at excitation 365 nm and emission 442 nm (L-AMC) or excitation 279 nm and emission 355 nm (10-mer). Compound IC50 was determined using a 4-parameter equation.

T1 sequence (Q9NZ08 37-941): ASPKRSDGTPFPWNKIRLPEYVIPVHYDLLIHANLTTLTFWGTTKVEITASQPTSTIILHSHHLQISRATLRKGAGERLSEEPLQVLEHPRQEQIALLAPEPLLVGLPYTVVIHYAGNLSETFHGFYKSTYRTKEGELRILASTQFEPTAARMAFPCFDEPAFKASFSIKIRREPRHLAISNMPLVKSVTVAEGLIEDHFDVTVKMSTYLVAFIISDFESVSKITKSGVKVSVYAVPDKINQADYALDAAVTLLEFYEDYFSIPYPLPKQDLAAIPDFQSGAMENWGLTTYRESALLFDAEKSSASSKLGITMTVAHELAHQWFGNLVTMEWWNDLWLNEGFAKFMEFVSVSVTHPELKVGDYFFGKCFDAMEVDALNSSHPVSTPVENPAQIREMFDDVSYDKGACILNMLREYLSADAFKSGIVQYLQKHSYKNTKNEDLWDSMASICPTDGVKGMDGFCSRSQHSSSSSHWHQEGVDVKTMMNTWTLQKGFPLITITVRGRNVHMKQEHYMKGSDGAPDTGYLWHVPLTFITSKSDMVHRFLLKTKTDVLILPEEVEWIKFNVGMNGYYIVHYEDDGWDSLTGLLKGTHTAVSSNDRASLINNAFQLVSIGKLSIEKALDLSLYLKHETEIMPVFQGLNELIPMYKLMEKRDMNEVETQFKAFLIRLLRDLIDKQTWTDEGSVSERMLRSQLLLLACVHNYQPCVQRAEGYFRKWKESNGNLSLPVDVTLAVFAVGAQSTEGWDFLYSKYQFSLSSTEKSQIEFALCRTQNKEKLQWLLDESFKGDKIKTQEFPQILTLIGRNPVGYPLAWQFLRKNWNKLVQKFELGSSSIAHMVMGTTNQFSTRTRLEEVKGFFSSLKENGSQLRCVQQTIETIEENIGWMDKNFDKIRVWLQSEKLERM

IC50 [nM] | Compound
< 250 | N#Cc1cc2c(cc1F)N1CCCCC1CCCOc1ccc(C(=O)O)cc1S(=O)(=O)N2 (single isomer, unassigned) [Example 42, 2-cyano-3-fluoro-6,7,8,9,9a,10,11,12-octahydro-19H-dibenzo[b,f]pyrido[1,2-h][1]oxa[4]thia[5,8]diazacyclododecine-16-carboxylic acid 18,18-dioxide]
< 250 | CS(=O)(=O)c1cc2c(cc1F)N1CCCCC1CCCCOc1ccc(C(=O)O)cc1S(=O)(=O)N2 (single isomer, unassigned) [Example 43, 3-fluoro-2-(methylsulfonyl)-7,8,9,9a,10,11,12,13-octahydro-6H, 20H-dibenzo[b,f]pyrido[1,2-h][1]oxa[4]thia[5,8]diazacyclotridecine-17-carboxylic acid 19,19-dioxide]
250 to 1000 | CS(=O)(=O)c1cc2c(cc1F)N1CCCCC1CCCCOc1ccc(C(=O)O)cc1S(=O)(=O)N2 (single isomer, unassigned) [Example 44, 3-fluoro-2-(methylsulfonyl)-7,8,9,9a,10,11,12,13-octahydro-6H, 20H-dibenzo[b,f]pyrido[1,2-h][1]oxa[4]thia[5,8]diazacyclotridecine-17-carboxylic acid 19,19-dioxide]
< 250 | N#Cc1cc2c(cc1Cl)N1CCCCC1C/C=C/COc1ccc(C(=O)O)cc1S(=O)(=O)N2 (single isomer, unassigned) [Example 45, (E)-3-chloro-2-cyano-7,8,9,9a,10,13-hexahydro-6H, 20H-dibenzo[b,f]pyrido[1,2-h][1]oxa[4]thia[5,8]diazacyclotridecine-17-carboxylic acid 19,19-dioxide]
< 250 | N#Cc1cc2c(cc1Cl)N1CCCCC1C/C=C/COc1ccc(C(=O)O)cc1S(=O)(=O)N2 (single isomer, unassigned) [Example 46, (E)-3-chloro-2-cyano-7,8,9,9a,10,13-hexahydro-6H, 20H-dibenzo[b,f]pyrido[1,2-h][1]oxa[4]thia[5,8]diazacyclotridecine-17-carboxylic acid 19,19-dioxide]
250 to 1000 | N#Cc1cc2c(cc1Cl)N1CCCCC1/C=C/COc1ccc(C(=O)O)cc1S(=O)(=O)N2 (single isomer, unassigned) [Example 47, (E)-3-chloro-2-cyano-6,7,8,9,9a,12-hexahydro-19H-dibenzo[b,f]pyrido[1,2-h][1]oxa[4]thia[5,8]diazacyclododecine-16-carboxylic acid 18,18-dioxide]
< 250 | N#Cc1cc2c(cc1Cl)N1CCCCC1/C=C/COc1ccc(C(=O)O)cc1S(=O)(=O)N2 (single isomer, unassigned) [Example 48, (E)-3-chloro-2-cyano-6,7,8,9,9a,12-hexahydro-19H-dibenzo[b,f]pyrido[1,2-h][1]oxa[4]thia[5,8]diazacyclododecine-16-carboxylic acid 18,18-dioxide]
< 250 | CS(=O)(=O)c1ccc2c(c1)NS(=O)(=O)c1cc(C(=O)O)ccc1OCCCC1CCCCN21 (single isomer, unassigned) [Example 49, 2-(methylsulfonyl)-6,7,8,9,9a,10,11,12-octahydro-19H-dibenzo[b,f]pyrido[1,2-h][1]oxa[4]thia[5,8]diazacyclododecine-16-carboxylic acid 18,18-dioxide]
250 to 1000 | CS(=O)(=O)c1ccc2c(c1)NS(=O)(=O)c1cc(C(=O)O)ccc1OCCCC1CCCCN21 (single isomer, unassigned) [Example 50, 2-(methylsulfonyl)-6,7,8,9,9a,10,11,12-octahydro-19H-dibenzo[b,f]pyrido[1,2-h][1]oxa[4]thia[5,8]diazacyclododecine-16-carboxylic acid 18,18-dioxide]
< 250 | N#Cc1cc2c(cc1F)N1CCCCC1CCCCOc1ccc(C(=O)O)cc1S(=O)(=O)N2 (single isomer, unassigned) [Example 55, 2-cyano-3-fluoro-7,8,9,9a,10,11,12,13-octahydro-6H,20H-dibenzo[b,f]pyrido[1,2-h][1]oxa[4]thia[5,8]diazacyclotridecine-17-carboxylic acid 19,19-dioxide]
< 250 | N#Cc1cc2c(cc1F)N1CCCCC1CCCCOc1ccc(C(=O)O)cc1S(=O)(=O)N2 (single isomer, unassigned) [Example 56, 2-cyano-3-fluoro-7,8,9,9a,10,11,12,13-octahydro-6H,20H-dibenzo[b,f]pyrido[1,2-h][1]oxa[4]thia[5,8]diazacyclotridecine-17-carboxylic acid 19,19-dioxide]
> 1000 | CS(=O)(=O)NC(=O)c1ccc2c(c1)S(=O)(=O)Nc1cc(C#N)c(Cl)cc1N1CCCC[C@H]1/C=C/CO2 (single isomer, unassigned) [Example 58]
> 1000 | CS(=O)(=O)NC(=O)c1ccc2c(c1)S(=O)(=O)Nc1cc(C#N)c(Cl)cc1N1CCCCC1C/C=C/CO2 (single isomer, unassigned) [Example 62]
< 250 | N#Cc1cc2c(cc1Cl)N1CCCC[C@@H]1COCCOc1ccc(C(=O)O)cc1S(=O)(=O)N2 (single isomer, unassigned) [Example 67]
< 250 | N#Cc1cc2c(cc1Cl)N1CCCC[C@H]1COCCOc1ccc(C(=O)O)cc1S(=O)(=O)N2 (single isomer, unassigned) [Example 68]
< 250 | N#Cc1ccc2c(c1)NS(=O)(=O)c1cc(C(=O)O)ccc1OCCCC1CCCCN21 (stereo not drawn) [Example 5, 2-cyano-6,7,8,9,9a,10,11,12-octahydro-19H-dibenzo[b,f]pyrido[1,2-h][1]oxa[4]thia[5,8]diazacyclododecine-16-carboxylic acid 18,18-dioxide]
< 250 | N#Cc1cc2c(cc1Cl)N1CCCC[C@@H]1CCCCOc1ccc(C(=O)O)cc1S(=O)(=O)N2 [Example 52, (R)-3-chloro-2-cyano-7,8,9,9a,10,11,12,13-octahydro-6H,20H-dibenzo[b,f]pyrido[1,2-h][1]oxa[4]thia[5,8]diazacyclotridecine-17-carboxylic acid 19,19-dioxide]
< 250 | N#Cc1cc2c(cc1Cl)N1CCCC[C@H]1CCCCOc1ccc(C(=O)O)cc1S(=O)(=O)N2 [Example 53, (S)-3-chloro-2-cyano-7,8,9,9a,10,11,12,13-octahydro-6H, 20H-dibenzo[b,f]pyrido[1,2-h][1]oxa[4]thia[5,8]diazacyclotridecine-17-carboxylic acid 19,19-dioxide]
< 250 | N#Cc1cc2c(cc1F)N1CCCC[C@H]1CCCCOc1ccc(C(=O)O)cc1S(=O)(=O)N2 [Example 57, (S)-2-cyano-3-fluoro-7,8,9,9a,10,11,12,13-octahydro-6H, 20H-dibenzo[b,f]pyrido[1,2-h][1]oxa[4]thia[5,8]diazacyclotridecine-17-carboxylic acid 19,19-dioxide]
< 250 | N#Cc1cc2c(cc1Cl)N1CCCC[C@@H]1CCCOc1ccc(C(=O)O)cc1S(=O)(=O)N2 [Example 59, (R)-3-chloro-2-cyano-6,7,8,9,9a,10,11,12-octahydro-19H-dibenzo[b,f]pyrido[1,2-h][1]oxa[4]thia[5,8]diazacyclododecine-16-carboxylic acid 18,18-dioxide]

Compound | IC50 [nM]
N#Cc1cc2c(cc1Cl)N1CCCC[C@H]1CCCOc1ccc(C(=O)O)cc1S(=O)(=O)N2 [Example 60, (S)-3-chloro-2-cyano-6,7,8,9,9a,10,11,12-octahydro-19H-dibenzo[b,f]pyrido[1,2-h][1]oxa[4]thia[5,8]diazacyclododecine-16-carboxylic acid 18,18-dioxide] | < 250
